Laboratory results published in patent publication US9212151B2, “Heterocyclic compounds useful for kinase inhibition” (Amitech Therapeutic Solutions, Inc., priority 2010, dated 2015).

Assays:
Tumor cells (A549) = assay: MTT cell viability assay, compounds at 5, 1 and 0.2 μM, 48 hours; format: cell-based
In short: (§1)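 A549 cells were seeded at 2500/well in DMEM + 10% FBS, grown overnight, then exposed to compound for 48 h. Viability was read by MTT (5 mg/ml, 4 h), with formazan dissolved in DMSO and absorbance measured at 560/570 nm to give survival rate.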

[1] = as above; format: cell-based; conditions: human, A549 tumor cells
In short: as §1

Row | SMILES | % Viability A549 (Tumor cells (A549); 0.2 μM) | % Viability A549 (Tumor cells (A549); 1 μM) | % Viability A549 (Tumor cells (A549); 5 μM) | viability at 48 h, 0.2 µM [1] [%] | viability at 48 h, 1 µM [1] [%] | viability at 48 h, 5 µM [1] [%]
1 | Cc1cc(Oc2cccc(-c3nnc(Nc4cccc(C(F)(F)F)c4)[nH]3)c2)nc(N)n1 [Compound 95] | +++ (+++: >70%) | +++ (+++: >70%) | ++ (++: 50-70%) | – | – | –
2 | CSc1nc(N)cc(Oc2ccc(-c3nnc(Nc4ccccc4C)[nH]3)cc2)n1 [Compound 154] | – | – | – | 50 to 70 | < 50 | < 50
3 | CCc1cc(Oc2cccc(-c3nnc(Nc4cccc(C(F)(F)F)c4)[nH]3)c2)nc(N)n1 [Compound 94] | – | – | – | > 70 | > 70 | 50 to 70
